Measurements as given in patent US10485895B2, “Self-assembling peptide scaffolds” (CELLULAR AND MOLECULAR RESEARCH CENTER, IRAN UNIVERSITY OF …, priority 2016, dated 2019).

Test system: Mg-63 cells
Assay: LDH cytotoxicity assay (LDH release as marker of dead cells)
Type: cell-based
Conditions: control group = 100%, aloe vera extract 5% (v/v), SDKP about 75 micrograms per milliliter, Fingolimod hydrochloride about 10 nanogram per milliliter, FIG. 3
Procedure: In some cases, lactate dehydrogenase (LDH) assays can be performed by assessing or measuring the LDH released into the media as a marker of dead cells. In this example, biocompatibility and cytotoxicity of the injectable scaffold of the present disclosure as a whole and its components were measured by an LDH cytotoxicity assay as follows.
Mg-63 cell line was the source of osteoblast cells in the following assays. Six test groups and one control group of Mg-63 cells were prepared for investigating the cytotoxicity effects of the present injectable scaffold and its components. FIG. 3 illustrates the data of LDH release from Mg-63 cells of six test groups and one control group. […]

Q: Which LDH release does the source give for C[C@H](NC(=O)[C@H](CC(=O)O)NC(=O)[C@H](C)NC(=O)[C@H](CCCNC(=N)N)NC(=O)[C@H](C)NC(=O)[C@H](CC(=O)O)NC(=O)[C@H](C)NC(=O)[C@H](CCCNC(=N)N)NC(=O)[C@H](C)NC(=O)[C@H](CC(=O)O)NC(=O)[C@H](C)NC(=O)[C@H](CCCNC(=N)N)NC(=O)[C@H](C)NC(=O)[C@H](CC(=O)O)NC(=O)[C@H](C)NC(=O)[C@@H](N)CCCNC(=N)N)C(=O)O [R] here?
A: about 62.35%
